Literature values as cited in US20080241290A1, “Sinus relief composition and method of producing the same” (priority 2007, published 2008).

Settings: pure capsaicinoid, Scoville scale

For `COc1cc(CNC(=O)CCCC/C=C/C(C)C)ccc1O` [capsaicin], the “pungency (Scoville heat units)” value is given as 15,000,000-16,000,000 Scoville units.
